Source: patent US8877745B2, “CCR2 receptor antagonists, method for producing the same, and use thereof as medicaments” (Boehringer Ingelheim International GmbH, priority 2010, dated 2014)

molecular target: T1, CCR2 (Homo sapiens, UniProt P41597); assay: CCR2 receptor membrane binding assay ([125I]MCP-1, THP-1 cell membranes, SPA beads); details: THP-1 membranes, [125I]MCP-1, bound radioactivity determined after 8 h; read-out: hKi
T1 construct: Membranes were prepared from THP-1 cells; endogenous in cells; host or cells: THP-1 (human acute monocytic leukaemia cells), membrane preparation
T1 sequence (P41597 whole entry): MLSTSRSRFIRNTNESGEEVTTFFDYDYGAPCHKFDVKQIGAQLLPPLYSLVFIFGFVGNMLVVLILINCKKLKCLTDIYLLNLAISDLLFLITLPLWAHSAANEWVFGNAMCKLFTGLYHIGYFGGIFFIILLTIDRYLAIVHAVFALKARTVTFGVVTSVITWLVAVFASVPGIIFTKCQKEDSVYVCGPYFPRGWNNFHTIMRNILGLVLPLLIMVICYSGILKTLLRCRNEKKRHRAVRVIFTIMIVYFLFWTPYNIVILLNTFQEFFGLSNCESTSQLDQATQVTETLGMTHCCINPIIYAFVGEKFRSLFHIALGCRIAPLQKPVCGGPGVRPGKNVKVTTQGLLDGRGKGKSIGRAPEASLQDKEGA
Description: The above exemplary substances have been tested for binding to CCR2 using a binding assay as outlined herein below:
THP-1 cells (human acute monocytic leukaemia cells) were cultured under standardized conditions at 37° C. and 5% CO2 in a humidified incubator. THP-1 cells were cultivated in RPMI 1640 medium (Gibco 21875) containing 1% MEM-NEAA (Gibso 11140) 2 mM L-glutamine, 1.5 g/L sodium bicarbonate, 4.5 g/L glucose, 10 mM HEPES and 1.0 mM sodium pyruvate, 90%; 10% fetal calf serum (FCS Gibco 10500-064).
Membranes were prepared from THP-1 cells. THP-1 cells were centrifuged at 300×g at 4° C. for 10 min. The cell pellet was resuspended in Phosphate Buffer Saline (PBS, including 10 μM Pefabloc and a protease inhibitor mix ‘complete’, Boehringer Mannheim (1 tablet/50 ml)), to a concentration of […]. The membrane preparation was performed by disrupting the cells by nitrogen […] (at 50 bar, for 1 h) in a “Nitrogen Bombe” (Parr Instrument). Cell debris was removed by centrifugation (800×g at 4° C., 1 min). The supernatant was centrifuged at 80000×g, 4° C. for 30 min to sediment the cell membranes. Usually 50 mg of protein (Bradford assay) were yielded from 1×10E9 cells. The membranes were resuspended in 25 mM HEPES, 25 mM MgCl2, 1 mM CaCl2, 10% Glycerine for storage in aliquots at −80° C. in 25 mM HEPES, 25 mM MgCl2, 1 mM CaCl2, 10% Glycerine and stored at −80° C.
Receptor Membrane Binding Assay:
Perkin Elmer NEX 332 Jod 125 MCP-1, Stock: 2200 Ci/mmol solved in […] assay buffer, stored at −20° C. THP-1 membrane were adjusted with 25 mM HEPES, pH 7.2; 5 mM MgCl2; 0.5 mM CaCl2; 0.2% BSA assay buffer to a concentration of 2.5 μg/15 μl. Amersham Biosciences PVT-WGA Beads (RPNQ0001) were adjusted with assay buffer to a concentration of 0.24 mg/30 μl. For preparation of the membrane-bead-suspension membranes and beads were incubated for 30 min at RT under rotation (60 rpm) with a ratio of 1:2. Test compounds dissolved in 100% DMSO to a concentration of 10 mM and are further diluted with 100% DMSO to 1 mM. All additional compound dilutions were obtained with assay buffer, final 1% DMSO. Compounds, membrane-bead-suspension and [^125I]MCP-1 (ca. 25000 cpm/10 μl) were incubated. Bound radioactivity was determined by scintillation counter after 8 h. Determination of affinity of test compounds (dissociation constant hKi) is calculated by iterative fitting of experimental data using the “easy sys” program, which is based on law of mass action (Schittkowski K. (1994), Numerische Mathematik, Vol. 68, 129-142).

Row | Ki [nM] | Structure (SMILES)
1 | 50 | COc1c(C(=O)N2CCC(N3CCC(N(C)S(C)(=O)=O)CC3)CC2)ncnc1N1CCc2ccc(C(F)(F)F)cc2C1 [Example 68]
2 | 5 | COc1nc(C(=O)N2CCC(NC3CCOCC3)CC2)c(C)c(N2CCc3ccc(C(F)(F)F)cc3C2)n1 [Example 69w]
3 | 451 | COC1COCCC1NC1CCN(C(=O)c2ncnc(N3CCC(c4ccccc4)C3)c2C)CC1 (stereo not shown) [Example 50]
4 | 4 | COc1nc(C(=O)N2CCC(N[C@@H]3CCOC[C@@H]3OC)CC2)c(C)c(N2CCc3ccc(C(F)(F)F)cc3C2)n1 [Example 69i]
5 | 40 | COC1COCCC1NC1CCN(C(=O)c2ncnc(N3CCN(c4ccc(Cl)cc4Cl)CC3)c2C)CC1 (stereo not shown) [Example 62ag]
6 | 39 | CO[C@@H]1COCC[C@@H]1NC1CCN(C(=O)c2ncnc(N3CCc4ccc(F)cc4C3)c2C)CC1 [Example 69h]
7 | 1710 | COC1COCCC1NC1CCN(C(=O)c2ncnc(N3CCCC(c4cccc(Cl)c4)C3)c2C)CC1 (stereo not shown) [Example 31]
8 | 2100 | Cc1c(C(=O)N2CCN(C(C)C)CC2)ncnc1N1CCc2ccc(C(F)(F)F)cc2C1 [Example 71]
9 | 0.7 | CO[C@@H]1COCC[C@@H]1NC1CCN(C(=O)c2nc(C3CC3)nc(N3CCc4ccc(C(F)(F)F)cc4C3)c2C)CC1 [Example 69x]
10 | 42 | COC1COCCC1NC1CCN(C(=O)c2ncnc(N3CCc4ccc(C)cc4C3)c2C)CC1 (stereo not shown) [Example 59]
11 | 52 | Cc1c(C(=O)N2CCC(N3CCCC3)CC2)ncnc1N1CCc2ccc(C(F)(F)F)cc2C1 [Example 73]
12 | 24 | Cc1c(C(=O)N2CCC(N[C@H]3CCOC[C@H]3F)CC2)ncnc1N1CCc2ccc(C(F)(F)F)cc2C1 [Example 69n]
13 | 241 | COC1COCCC1NC1CCN(C(=O)c2ncnc(N3CCC(c4ccccc4C(F)(F)F)CC3)c2C)CC1 (stereo not shown) [Example 29]
14 | 309 | COC1COCCC1NC1CCN(C(=O)c2ncnc(N3CCc4ncc(C(F)(F)F)cc4C3)c2C)CC1 (stereo not shown) [Example 61]
15 | 1360 | Cc1cccc(C2CCN(c3ncnc(C(=O)N4CCC(N5CCC(N(C)S(C)(=O)=O)CC5)CC4)c3C)CC2)c1 [Example 30]
16 | 184 | COC1COCCC1NC1CCN(C(=O)c2ncnc(N3CCC4(CC3)CC(=O)c3cc(Br)ccc3O4)c2C)CC1 (stereo not shown) [Example 62i]
17 | 419 | COC1COCCC1NC1CCN(C(=O)c2ncnc(N3CCC(c4ccccc4Cl)C3)c2C)CC1 (stereo not shown) [Example 62e]
18 | 89 | COC1COCCC1NC1CCN(C(=O)c2ncnc(N3CCN(c4ccccc4Cl)CC3)c2C)CC1 (stereo not shown) [Example 62aa]
19 | 104 | Cc1c(C(=O)N2CCC(N3CCC(O)CC3)CC2)ncnc1N1CCc2ccc(C(F)(F)F)cc2C1 [Example 72]
20 | 357 | COC1COCCC1NC1CCN(C(=O)c2ncnc(N3CC4CC4(c4cccc(C(F)(F)F)c4)C3)c2C)CC1 (stereo not shown) [Example 62b]

Row | Ki [nM] | Structure (SMILES)
21 | 432 | COC1COCCC1NC1CCN(C(=O)c2ncnc(N3CCC(c4ccc(C(F)(F)F)cc4)CC3)c2C)CC1 (stereo not shown) [Example 41]
22 | 1970 | Cc1c(C(=O)N2CCC(N3CCC(N(C)S(C)(=O)=O)CC3)CC2)ncnc1N1CCC(c2ccc(Cl)cc2)CC1 [Example 26]
23 | 657 | CCN(CC)C1CCN(C(=O)c2ncnc(N3CCc4ccc(C(F)(F)F)cc4C3)c2C)C1 (stereo not shown) [Example 75]
24 | 410 | Cc1c(C(=O)N2CCC(N3CCCC(O)C3)CC2)ncnc1N1CCc2ccc(C(F)(F)F)cc2C1 (stereo not shown) [Example 77]
25 | 5 | COC1COCCC1NC1CCN(C(=O)c2ncnc(N3CCc4ccc(C(F)(F)F)cc4C3)c2C)CC1 (stereo not shown) [Example 60]
26 | 5140 | COC1COCCC1NC1CCN(C(=O)c2ncnc(N3CCn4c(-c5ccccc5)cnc4C3)c2C)CC1 (stereo not shown) [Example 62s]
27 | 1 | CO[C@@H]1COCC[C@@H]1NC1CCN(C(=O)c2ncnc(N3COc4ccc(C(F)(F)F)cc4C3)c2C)CC1 [Example 69e]
28 | 739 | COC1COCCC1NC1CCN(C(=O)c2ncnc(N3CCC(c4ccc(C)cc4)CC3)c2C)CC1 (stereo not shown) [Example 13]
29 | 18 | COC1COCCC1NC1CCN(C(=O)c2ncnc(N3CCN(c4cccc(Cl)c4Cl)CC3)c2C)CC1 (stereo not shown) [Example 62x]
30 | 636 | COC1COCCC1NC1CCN(C(=O)c2ncnc(N3CCc4ccccc4CC3)c2C)CC1 (stereo not shown) [Example 54]
31 | 300 | COC1COCCC1NC1CCN(C(=O)c2ncnc(N3CCN(c4ccccc4C)CC3)c2C)CC1 (stereo not shown) [Example 62m]
32 | 1050 | Cc1c(C(=O)N2CCC(N3CCC(N(C)S(C)(=O)=O)CC3)CC2)ncnc1N1CCC(c2ccc(C(F)(F)F)cc2)CC1 [Example 17]
33 | 49 | COC1COCCC1NC1CCN(C(=O)c2ncnc(N3Cc4ccc(C(F)(F)F)cc4C3)c2C)CC1 (stereo not shown) [Example 43]
34 | 49 | COC1COCCC1NC1CCN(C(=O)c2ncnc(N3CCc4c(Cl)cc(Cl)cc4C3)c2C)CC1 (stereo not shown) [Example 39]
35 | 192 | COC1COCCC1NC1CCN(C(=O)c2ncnc(N3CCCC(c4ccccc4)CC3)c2C)CC1 (stereo not shown) [Example 62n]
36 | 3620 | COC1COCCC1NC1CCN(C(=O)c2ncnc(N3CCC4(CC3)OCc3ccccc34)c2C)CC1 (stereo not shown) [Example 19]
37 | 7 | CO[C@@H]1COCC[C@@H]1NC1CCN(C(=O)c2ncnc(N3CCc4ccc(Br)cc4C3)c2C)CC1 [Example 69y]
38 | 17 | COC1COCCC1NC1CCN(C(=O)c2ncnc(N3CCN(c4cc(Cl)cc(Cl)c4)CC3)c2C)CC1 (stereo not shown) [Example 62t]
39 | 10 | Cc1c(C(=O)N2CCC(N[C@H]3CCOC[C@H]3F)CC2)ncnc1N1COc2ccc(C(F)(F)F)cc2C1 [Example 69o]
40 | 405 | COC1COCCC1NC1CCN(C(=O)c2ncnc(N3CCC(c4ccccc4F)C3)c2C)CC1 (stereo not shown) [Example 51]

Row | Ki [nM] | Structure (SMILES)
41 | 3400 | Cc1c(C(=O)N2CCCN(CCO)CC2)ncnc1N1CCc2ccc(C(F)(F)F)cc2C1 [Example 76]
42 | 2160 | Cc1c(C(=O)N2CCC(N3CCC(N(C)S(C)(=O)=O)CC3)CC2)ncnc1N1CCC2(C=Cc3ccccc32)CC1 [Example 11]
43 | 159 | COC1COCCC1NC1CCN(C(=O)c2ncnc(N3CCC(c4ccc(C(F)(F)F)cc4)C3)c2C)CC1 (stereo not shown) [Example 48]
44 | 516 | COC1COCCC1NC1CCN(C(=O)c2ncnc(N3CCCN(c4ccc(Cl)cc4)CC3)c2C)CC1 (stereo not shown) [Example 62j]
45 | 1020 | COC1COCCC1NC1CCN(C(=O)c2ncnc(N3CCN(c4ccc(C(F)(F)F)cn4)CC3)c2C)CC1 (stereo not shown) [Example 56]
46 | 14 | COC1COCCC1NC1CCN(C(=O)c2ncnc(N3CCc4ccc(Cl)cc4C3)c2C)CC1 (stereo not shown) [Example 10]
47 | 161 | COC1COCCC1NC1CCN(C(=O)c2ncnc(N3CCC(c4ccccc4C(F)(F)F)C3)c2C)CC1 (stereo not shown) [Example 49]
48 | 41 | COC1COCCC1NC1CCN(C(=O)c2ncnc(N3CCN(c4cccc(C)c4C)CC3)c2C)CC1 (stereo not shown) [Example 62ah]
49 | 30 | CO[C@@H]1COCC[C@@H]1NC1CCN(C(=O)c2ccnc(N3CCc4ccc(C(F)(F)F)cc4C3)c2C)CC1 [Example 69a]
50 | 11 | COc1c(C(=O)N2CCC(N[C@H]3CCOC[C@H]3OC)CC2)ncnc1N1CCc2ccc(OC(F)(F)F)cc2C1 [Example 69d]
51 | 4 | CO[C@@H]1COCC[C@@H]1NC1CCN(C(=O)c2ncnc(N3CCc4ccc(C(F)(F)F)cc4C3)c2C)CC1 [Example 63]
52 | 1170 | Cc1c(C(=O)N2CCC(N3CCC(N(C)S(C)(=O)=O)CC3)CC2)ncnc1N1CCC(c2cccc(C(F)(F)F)c2)C1 (stereo not shown) [Example 46]
53 | 698 | Cc1c(C(=O)N2CCC(N3CCC(c4cccc(C(=O)O)c4)CC3)CC2)ncnc1N1CCc2ccc(C(F)(F)F)cc2C1 [Example 83]
54 | 6 | CO[C@@H]1COCC[C@@H]1NC1CCN(C(=O)c2ncnc(N3CCc4cc(C(F)(F)F)ccc4C3)c2C)CC1 [Example 69p]
55 | 3600 | COC1COCCC1NC1CCN(C(=O)c2ncnc(N3CCCC(c4ccc(F)cc4)C3)c2C)CC1 (stereo not shown) [Example 32]
56 | 37 | Cc1c(C(=O)N2CCC(N[C@@H]3CCOC[C@@H]3F)CC2)ncnc1N1CCc2ccc(Br)cc2C1 [Example 69ab]
57 | 189 | COC1COCCC1NC1CCN(C(=O)c2ncnc(N3CCN(c4cccc(C(F)(F)F)c4)CC3)c2C)CC1 (stereo not shown) [Example 57]
58 | 3920 | Cc1c(C(=O)N2CCC(N3CCC(N(C)S(C)(=O)=O)CC3)CC2)ncnc1N1CCC(c2ccccc2F)C1 (stereo not shown) [Example 44]
